Our source for the MIC, Ratio and hemolysis values is ChEMBL document CHEMBL3875147 (Eur J Med Chem, 2016).

Series [1] concerns Staphylococcus epidermidis. Nature of the series: Antibacterial activity against Staphylococcus epidermidis ATCC 35984 incubated for 18 to 24 hrs by micro-dilution method. The class given is functional. The settings on record: RP62A.
Series [2] relates to Pseudomonas aeruginosa. Description: Antibacterial activity against clinical isolate of Pseudomonas aeruginosa incubated for 18 to 24 hrs by micro-dilution method. Format: functional.
For series [3], the system named is Enterococcus faecalis. Nature of the series: Antibacterial activity against clinical isolate of Enterococcus faecalis incubated for 18 to 24 hrs by micro-dilution method. Format: functional.
The subject of series [4] is Plesiomonas shigelloides. Description: Antibacterial activity against Plesiomonas shigelloides ATCC 14029 incubated for 18 to 24 hrs by micro-dilution method. The class given is functional.
The test system of series [5] is Staphylococcus aureus. Description: Antibacterial activity against Staphylococcus aureus ATCC 25923 incubated for 18 to 24 hrs by micro-dilution method. The class given is functional.
Series [6] can be described thus: Antibacterial activity against Aeromonas hydrophila ATCC 7966 incubated for 18 to 24 hrs by micro-dilution method. Format: functional, Aeromonas hydrophila subsp. hydrophila ATCC 7966.
A further series has as its system Salmonella typhi. Description: Antibacterial activity against clinical isolate of Salmonella typhi incubated for 18 to 24 hrs by micro-dilution method. Format: functional, Salmonella enterica subsp. enterica serovar Typhi. As to conditions: Salmonella enterica.
Series [7] deals with Enterococcus faecalis. Description: Potency index, ratio of MIC for ciprofloxacin to MIC for test compound for antibacterial activity against clinical isolate of Enterococcus faecalis. Format: functional.
The nature of series [8]: Hemolytic activity in human RBC at 100 uM measured after 1 hr by UV-vis absorbance method relative to control. Format: ADME, cell-based, Erythrocyte. The settings on record: red blood cells (RBC), read-out: Activity.
In another series the test system is Salmonella typhimurium. Description: Antibacterial activity against clinical isolate of Salmonella typhimurium incubated for 18 to 24 hrs by micro-dilution method. The class given is functional, Salmonella enterica subsp. enterica serovar Typhimurium. The settings on record: Salmonella enterica.
Series [9] relates to Sphingomonas paucimobilis. Description: Antibacterial activity against Sphingomonas paucimobilis MTCC 6362 incubated for 18 to 24 hrs by micro-dilution method. The class given is functional.
Series [10] has as its system Pseudomonas aeruginosa. Nature of the series: Antibacterial activity against Pseudomonas aeruginosa ATCC 27853 incubated for 18 to 24 hrs by micro-dilution method. The class given is functional.
Series [11] relates to Escherichia coli. Nature of the series: Antibacterial activity against Escherichia coli ATCC 25922 incubated for 18 to 24 hrs by micro-dilution method. Format: functional.
Series [12] concerns Escherichia coli. Description: Potency index, ratio of MIC for ciprofloxacin to MIC for test compound for antibacterial activity against Escherichia coli ATCC 25922. Format: functional.
For series [13], the system named is Staphylococcus epidermidis. Description: Potency index, ratio of MIC for ciprofloxacin to MIC for test compound for antibacterial activity against Staphylococcus epidermidis ATCC 35984. Format: functional, RP62A.
The test system of series [14] is Plesiomonas shigelloides. Nature of the series: Potency index, ratio of MIC for ciprofloxacin to MIC for test compound for antibacterial activity against Plesiomonas shigelloides ATCC 14029. Format: functional.
Series [15] has as its system Staphylococcus aureus. Description: Potency index, ratio of MIC for ciprofloxacin to MIC for test compound for antibacterial activity against Staphylococcus aureus ATCC 25923. Format: functional.

≈ marks a conversion by molar mass, not a printed value.

With `O=C(OCc1cn(-c2ccc(OC(F)(F)F)cc2)nn1)c1cn(C2CC2)c2cc(N3CCN(Cc4cn(-c5ccc(OC(F)(F)F)cc5)nn4)CC3)c(F)cc2c1=O`, the MIC was 1.92 µM (≈ 1.56 µg/mL) in [1]; 15.4 µM (≈ 12.5 µg/mL) in the series on Pseudomonas aeruginosa [2]; 0.96 µM (≈ 0.781 µg/mL) in the series on Enterococcus faecalis [3]; 15.4 µM (≈ 12.5 µg/mL) against Plesiomonas shigelloides [4]; 3.84 µM (≈ 3.12 µg/mL) against Staphylococcus aureus [5]; 3.84 µM (≈ 3.12 µg/mL) in [6]. Further, the MIC with Salmonella typhi turned out to be 30.7 µM (≈ 25 µg/mL); against Salmonella typhimurium, 3.84 µM (≈ 3.12 µg/mL); in series [9] it was 15.4 µM (≈ 12.5 µg/mL); against Pseudomonas aeruginosa [10] it was 3.84 µM (≈ 3.12 µg/mL); against Escherichia coli [11], 3.84 µM (≈ 3.12 µg/mL). Besides, in the series with Enterococcus faecalis [7], the Ratio was found to be 19. The hemolysis at 1 h, 100 µM in [8] came out at 9.75%.
In the case of `C#CCOC(=O)c1cn(C2CC2)c2cc(N3CCN(CC#C)CC3)c(F)cc2c1=O`, the MIC in [1] is 1.92 µM (≈ 0.782 µg/mL); in the series on Pseudomonas aeruginosa [2], 15.3 µM (≈ 6.25 µg/mL); with Enterococcus faecalis [3], 30.7 µM (≈ 12.5 µg/mL); in the series with Plesiomonas shigelloides [4], 1.92 µM (≈ 0.782 µg/mL); in the series with Staphylococcus aureus [5], 1.92 µM (≈ 0.782 µg/mL); in series [6], 61.4 µM (≈ 25 µg/mL). The MIC against Salmonella typhi came out at 30.7 µM (≈ 12.5 µg/mL); against Salmonella typhimurium, 7.67 µM (≈ 3.13 µg/mL); in [9], 30.7 µM (≈ 12.5 µg/mL); against Pseudomonas aeruginosa [10], 7.67 µM (≈ 3.13 µg/mL); in the series on Escherichia coli [11], 1.92 µM (≈ 0.782 µg/mL). Besides, the Ratio (in the series on Escherichia coli [12]; in [13]; in the series with Plesiomonas shigelloides [14]; with Staphylococcus aureus [15]) was 5 - 10 each time. Besides, the hemolysis at 1 h, 100 µM in [8] was found to be 4.57%.
Consider `O=C(OCc1cn(-c2cccc(Cl)c2)nn1)c1cn(C2CC2)c2cc(N3CCN(Cc4cn(-c5cccc(Cl)c5)nn4)CC3)c(F)cc2c1=O`, for which the MIC in [1] was 1.09 µM (≈ 0.779 µg/mL); against Pseudomonas aeruginosa [2], 35 µM (≈ 25 µg/mL); in the series on Enterococcus faecalis [3] it was 8.75 µM (≈ 6.25 µg/mL); against Plesiomonas shigelloides [4], 1.09 µM (≈ 0.779 µg/mL); with Staphylococcus aureus [5], 1.09 µM (≈ 0.779 µg/mL); in series [6], 35 µM (≈ 25 µg/mL). In addition, the MIC with Salmonella typhi was 140 µM (≈ 100 µg/mL); against Salmonella typhimurium it was 17.5 µM (≈ 12.5 µg/mL); in series [9], 17.5 µM (≈ 12.5 µg/mL); with Pseudomonas aeruginosa [10], 17.5 µM (≈ 12.5 µg/mL); against Escherichia coli [11], 1.09 µM (≈ 0.779 µg/mL). Further, the Ratio (in the series with Escherichia coli [12]; in series [13]; with Plesiomonas shigelloides [14]; with Staphylococcus aureus [15]) was 8 - 17 throughout. Besides, in [8], the hemolysis at 1 h, 100 µM is 24.2%.
On to `O=C(OCc1cn(-c2ccc(F)cc2F)nn1)c1cn(C2CC2)c2cc(N3CCN(Cc4cn(-c5ccc(F)cc5F)nn4)CC3)c(F)cc2c1=O`, for which the MIC was found to be 8.71 µM (≈ 6.25 µg/mL) in series [1]; 17.4 µM (≈ 12.5 µg/mL) against Pseudomonas aeruginosa [2]; 17.4 µM (≈ 12.5 µg/mL) in the series on Enterococcus faecalis [3]; 69.7 µM (≈ 50 µg/mL) in the series with Plesiomonas shigelloides [4]; 4.35 µM (≈ 3.12 µg/mL) with Staphylococcus aureus [5]; 69.7 µM (≈ 50 µg/mL) in [6]. Also, the MIC is 4.35 µM (≈ 3.12 µg/mL) against Salmonella typhi; 34.8 µM (≈ 25 µg/mL) against Salmonella typhimurium; 34.8 µM (≈ 25 µg/mL) in series [9]; 8.71 µM (≈ 6.25 µg/mL) against Pseudomonas aeruginosa [10]; 8.71 µM (≈ 6.25 µg/mL) in the series with Escherichia coli [11]. Moreover, in [8], the hemolysis at 1 h, 100 µM was 9.5%.
